In patent publication US8258151B2, “3-aminoimidazo [1,2-A] pyridine derivatives as SGLT inhibitors” (Merck Patent GmbH, priority 2006, dated 2012):
pIC50: −log10 of the molar value.

Legend:
SGLT1 = molecular target: T1, SGLT1 (Homo sapiens, UniProt P13866); test: SGLT1 activity measurement: 14C-AMG uptake in BHK cells transfected with SGLT1; type: cell-based; details: AMG 50 μM, 37° C., 90 min
T1 construct: expressed in transfected cells
T1 sequence (P13866 1-664): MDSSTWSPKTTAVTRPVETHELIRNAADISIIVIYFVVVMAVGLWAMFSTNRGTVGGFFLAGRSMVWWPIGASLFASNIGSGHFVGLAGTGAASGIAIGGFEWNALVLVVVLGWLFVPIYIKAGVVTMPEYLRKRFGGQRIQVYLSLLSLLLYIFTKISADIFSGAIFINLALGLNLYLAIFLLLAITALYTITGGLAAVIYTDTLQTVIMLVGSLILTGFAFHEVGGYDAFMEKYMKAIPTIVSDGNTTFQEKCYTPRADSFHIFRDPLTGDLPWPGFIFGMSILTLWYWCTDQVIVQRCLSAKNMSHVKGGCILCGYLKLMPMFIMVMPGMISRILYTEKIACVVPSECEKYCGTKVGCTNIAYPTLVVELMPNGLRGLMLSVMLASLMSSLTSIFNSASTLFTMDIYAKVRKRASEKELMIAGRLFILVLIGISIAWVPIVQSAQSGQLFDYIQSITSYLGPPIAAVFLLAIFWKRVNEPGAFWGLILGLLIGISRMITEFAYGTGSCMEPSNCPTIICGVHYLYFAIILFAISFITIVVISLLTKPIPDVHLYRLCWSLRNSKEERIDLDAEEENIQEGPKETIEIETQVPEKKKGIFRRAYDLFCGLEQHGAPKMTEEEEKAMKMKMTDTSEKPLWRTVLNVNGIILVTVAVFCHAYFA
Summary of the method: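 BHK21 cells stably transfected with human SLC5A1 were incubated with 14C-AMG (added solution at 50 μM) ± compound for 90 min at 37 °C. The buffer was 140 mM NaCl, HEPES/Tris, pH 7.4. Lysed-cell radioactivity was counted by scintillation, and non-specific uptake was measured in sodium-free sucrose buffer.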

SGLT2 = molecular target: T2, SGLT2 (Homo sapiens, UniProt P31639); test: SGLT2 activity measurement: 14C-AMG uptake in BHK cells transfected with SGLT2; type: cell-based; details: AMG 2 mM, 37° C., 90 min
T2 construct: expressed in transfected cells
T2 sequence (P31639 1-672): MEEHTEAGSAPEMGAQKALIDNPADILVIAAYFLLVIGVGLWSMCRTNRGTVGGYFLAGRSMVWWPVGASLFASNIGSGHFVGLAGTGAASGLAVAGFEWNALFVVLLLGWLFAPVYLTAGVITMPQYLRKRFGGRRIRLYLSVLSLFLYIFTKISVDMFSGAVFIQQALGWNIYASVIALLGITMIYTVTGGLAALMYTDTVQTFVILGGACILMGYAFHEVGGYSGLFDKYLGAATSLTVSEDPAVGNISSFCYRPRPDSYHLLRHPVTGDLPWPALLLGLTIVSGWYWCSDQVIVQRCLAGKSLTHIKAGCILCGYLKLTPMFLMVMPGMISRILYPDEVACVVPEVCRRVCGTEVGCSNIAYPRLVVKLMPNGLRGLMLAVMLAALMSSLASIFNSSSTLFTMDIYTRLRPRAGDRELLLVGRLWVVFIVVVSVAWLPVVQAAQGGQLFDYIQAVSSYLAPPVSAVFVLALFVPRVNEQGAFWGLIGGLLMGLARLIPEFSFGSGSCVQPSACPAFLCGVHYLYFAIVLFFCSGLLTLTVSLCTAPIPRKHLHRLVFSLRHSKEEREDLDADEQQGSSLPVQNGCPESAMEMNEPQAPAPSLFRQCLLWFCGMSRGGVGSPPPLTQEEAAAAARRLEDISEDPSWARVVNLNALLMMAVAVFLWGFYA
Summary of the method: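 BHK21 cells stably expressing human SGLT2 took up 14C-AMG (added as 2 mM solution) ± compound for 90 min at 37 °C in Na+-containing HEPES/Tris buffer, pH 7.4. Uptake was measured by scintillation counting after lysis. Non-specific uptake was defined in sodium-free sucrose buffer.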

pIC50 (SGLT1) | pIC50 (SGLT2) | Compound
5.00 to 6.00 | 6.00 to 8.00 | COc1cc(C)c(-c2nc3ccc(F)cn3c2Nc2c(C)ccc(Cl)c2C)c(OCC(N)=O)c1 [Compound A218, 2-[2-(Aminocarbonylmethoxy)-4-methoxy-6-methylphenyl]-3-(3-chloro-2,6-dimethylphenyl-amino)-6-fluoroimidazo[1,2-a]pyridine]
5.00 to 6.00 | 6.00 to 8.00 | COc1cc(C)c(-c2nc3ccc(F)cn3c2Nc2c(F)cccc2F)c(OCC(N)=O)c1 [Compound A219, 2-[2-(Aminocarbonylmethoxy)-4-methoxy-6-methylphenyl]-3-(2,6-difluorophenylamino)-6-fluoroimidazo[1,2-a]pyridine]
5.00 to 6.00 | 6.00 to 8.00 | CCc1cc(OC)cc(OCC(N)=O)c1-c1nc2ccc(F)cn2c1Nc1c(F)cccc1F [Compound A220, 2-[2-(Aminocarbonylmethoxy)-4-methoxy-6-ethylphenyl]-3-(2,6-difluorophenylamino)-6-fluoroimidazo[1,2-a]pyridine]
5.00 to 6.00 | 6.00 to 8.00 | CCc1cc(OC)cc(OCC(N)=O)c1-c1nc2c(F)cc(F)cn2c1Nc1c(C)cccc1C [Compound A221, 2-[2-(Aminocarbonylmethoxy)-4-methoxy-6-ethylphenyl]-3-(2,6-dimethylphenylamino)-6,8-difluoroimidazo[1,2-a]pyridine]
5.00 to 6.00 | 6.00 to 8.00 | COc1cc(C)c(-c2nc3ccc(F)cn3c2Nc2c(C)cc(Cl)cc2C)c(OCC(N)=O)c1 [Compound A222, 2-[2-(Aminocarbonylmethoxy)-4-methoxy-6-methylphenyl]-3-(4-chloro-2,6-dimethylphenyl-amino)-6-fluoroimidazo[1,2-a]pyridine]
5.00 to 6.00 | 6.00 to 8.00 | COc1cc(C)c(-c2nc3ccccn3c2Nc2c(Cl)cc(F)cc2Cl)c(OCC(N)=O)c1 [Compound A224, 2-[2-(Aminocarbonylmethoxy)-4-methoxy-6-methylphenyl]-3-(4-fluoro-2,6-dichlorophenyl-amino)imidazo[1,2-a]pyridine]
5.00 to 6.00 | 6.00 to 8.00 | COc1cc(C)c(-c2nc3c(F)cc(F)cn3c2Nc2c(Cl)cc(F)cc2Cl)c(OCC(N)=O)c1 [Compound A225, 2-[2-(Aminocarbonylmethoxy)-4-methoxy-6-methylphenyl]-3-(4-fluoro-2,6-dichlorophenyl-amino)-6,8-difluoroimidazo[1,2-a]pyridine]
5.00 to 6.00 | 6.00 to 8.00 | COc1cc(C)c(-c2nc3c(F)cc(F)cn3c2Nc2c(Cl)cccc2Cl)c(OCC(N)=O)c1 [Compound A226, 2-[2-(Aminocarbonylmethoxy)-4-methoxy-6-methylphenyl]-3-(2,6-dichlorophenylamino)-6,8-difluoroimidazo[1,2-a]pyridine]
5.00 to 6.00 | 6.00 to 8.00 | CCc1cc(OC)cc(OCC(N)=O)c1-c1nc2c(F)cc(F)c(N)n2c1Nc1c(C)cccc1C [Compound A227, 2-[2-(Aminocarbonylmethoxy)-4-methoxy-6-ethylphenyl]-3-(2,6-dimethylphenylamino)-5-amino-6,8-difluoroimidazo[1,2-a]pyridine]
< 5.00 | 6.00 to 8.00 | CCc1cc(OS(=O)(=O)N(C)C)cc(OCC(N)=O)c1-c1nc2ccc(F)cn2c1Nc1c(C)cccc1C [Compound A228, 2-[2-(Aminocarbonylmethoxy)-4-dimethyl-sulfamoyloxy-6-ethylphenyl]-3-(2,6-dimethyl-phenylamino)-6-fluoroimidazo[1,2-a]pyridine]
< 5.00 | 5.00 to 6.00 | COc1cc(C)c(-c2nc3ccc(F)cn3c2Nc2ccc(F)cc2F)c(OCC(N)=O)c1 [Compound A229, 2-[2-(Aminocarbonylmethoxy)-4-methoxy-6-methylphenyl]-3-(2,4-difluorophenylamino)-6-fluoroimidazo[1,2-a]pyridine]
< 5.00 | 6.00 to 8.00 | CCc1cc(OCC(N)=O)cc(OCC(N)=O)c1-c1nc2ccc(F)cn2c1Nc1c(C)cccc1C [Compound A230, 2-[2-(Aminocarbonylmethoxy)-4-(amino-carbonylmethoxy)-6-ethylphenyl]-3-(2,6-dimethylphenylamino)-6-fluoroimidazo[1,2-a]-pyridine]
5.00 to 6.00 | 6.00 to 8.00 | COc1cc(OCC(N)=O)c(-c2nc3ccc(F)cn3c2Nc2c(C)cccc2C)c(C)c1Cl [Compound A231, 2-[2-(Aminocarbonylmethoxy)-5-chloro-4-methoxy-6-methylphenyl]-3-(2,6-dimethylphenyl-amino)-6-fluoroimidazo[1,2-a]pyridine]
5.00 to 6.00 | 6.00 to 8.00 | COc1cc(C)c(-c2nc3ccc(F)cn3c2Nc2c(C)cccc2[N+](=O)[O-])c(OCC(N)=O)c1 [Compound A232, 2-[2-(Aminocarbonylmethoxy)-4-methoxy-6-methylphenyl]-3-(2-methyl-6-nitrophenylamino)-6-fluoroimidazo[1,2-a]pyridine]
< 5.00 | 6.00 to 8.00 | COc1cc(C)c(-c2nc3ccc(F)cn3c2Nc2c(Br)cccc2Br)c(OCC(N)=O)c1 [Compound A233, 2-[2-(Aminocarbonylmethoxy)-4-methoxy-6-methylphenyl]-3-(2,6-dibromophenylamino)-6-fluoroimidazo[1,2-a]pyridine]
5.00 to 6.00 | 6.00 to 8.00 | COc1cc(C)c(-c2nc3ccc(F)cn3c2Nc2c(C)cc(F)cc2C)c(OCC(N)=O)c1 [Compound A234, 2-[2-(Aminocarbonylmethoxy)-4-methoxy-6-methylphenyl]-3-(2,6-dimethyl-4-fluorophenyl-amino)-6-fluoroimidazo[1,2-a]pyridine]
5.00 to 6.00 | 6.00 to 8.00 | CCc1cc(OC)cc(OCC(N)=O)c1-c1nc2ccc(F)cn2c1Nc1c(C)cc(F)cc1C [Compound A235, 2-[2-(Aminocarbonylmethoxy)-4-methoxy-6-ethylphenyl]-3-(2,6-dimethyl-4-fluorophenyl-amino)-6-fluoroimidazo[1,2-a]pyridine]
5.00 to 6.00 | 6.00 to 8.00 | COc1cc(C)c(-c2nc3ccc(F)cn3c2Nc2c(C)cccc2C(F)(F)F)c(OCC(N)=O)c1 [Compound A236, 2-[2-(Aminocarbonylmethoxy)-4-methoxy-6-methylphenyl]-3-(2-methyl-6-trifluoromethyl-phenylamino)-6-fluoroimidazo[1,2-a]pyridine]
5.00 to 6.00 | 6.00 to 8.00 | COc1cc(C)c(-c2nc3c(F)cc(F)cn3c2Nc2c(C)cccc2C)c(OCC(N)=O)c1 [Compound A237, 2-[2-(Aminocarbonylmethoxy)-4-methoxy-6-methylphenyl]-3-(2,6-dimethylphenylamino)-6,8-difluoroimidazo[1,2-a]pyridine]
5.00 to 6.00 | 6.00 to 8.00 | COc1cc(C)c(-c2nc3ccc(F)cn3c2Nc2c(Br)cc(F)cc2Br)c(OCC(N)=O)c1 [Compound A238, 2-[2-(Aminocarbonylmethoxy)-4-methoxy-6-methylphenyl]-3-(2,6-dibromo-4-fluorophenyl-amino)-6-fluoroimidazo[1,2-a]pyridine]
6.00 to 8.00 | 6.00 to 8.00 | COc1cc(C)c(-c2nc3ccc(F)cn3c2Nc2c(Br)cc(C)cc2Br)c(OCC(N)=O)c1 [Compound A239, 2-[2-(Aminocarbonylmethoxy)-4-methoxy-6-methylphenyl]-3-(2,6-dibromo-4-methylphenyl-amino)-6-fluoroimidazo[1,2-a]pyridine]
